Data from ChEMBL document CHEMBL1132621, “Synthesis, structure-activity relationships, and in vivo evaluations of substituted di-tert-butylphenols as a novel class of potent, selective, and orally active cyclooxygenase-2 inhibitors. 1. Thiazolone and oxazolone series” (J Med Chem, 1999).

Key:
[1] = biological target: T1, Prostaglandin G/H synthase 1 (Homo sapiens, UniProt P23219); assay: (§1) IC50 against Prostaglandin G/H synthase 1 from human platelet rich plasma
[2] = biological target: T2, Prostaglandin G/H synthase 2 (Homo sapiens, UniProt P35354); assay: IC50 against recombinant human Prostaglandin G/H synthase 2
T2 sequence (P35354 whole entry): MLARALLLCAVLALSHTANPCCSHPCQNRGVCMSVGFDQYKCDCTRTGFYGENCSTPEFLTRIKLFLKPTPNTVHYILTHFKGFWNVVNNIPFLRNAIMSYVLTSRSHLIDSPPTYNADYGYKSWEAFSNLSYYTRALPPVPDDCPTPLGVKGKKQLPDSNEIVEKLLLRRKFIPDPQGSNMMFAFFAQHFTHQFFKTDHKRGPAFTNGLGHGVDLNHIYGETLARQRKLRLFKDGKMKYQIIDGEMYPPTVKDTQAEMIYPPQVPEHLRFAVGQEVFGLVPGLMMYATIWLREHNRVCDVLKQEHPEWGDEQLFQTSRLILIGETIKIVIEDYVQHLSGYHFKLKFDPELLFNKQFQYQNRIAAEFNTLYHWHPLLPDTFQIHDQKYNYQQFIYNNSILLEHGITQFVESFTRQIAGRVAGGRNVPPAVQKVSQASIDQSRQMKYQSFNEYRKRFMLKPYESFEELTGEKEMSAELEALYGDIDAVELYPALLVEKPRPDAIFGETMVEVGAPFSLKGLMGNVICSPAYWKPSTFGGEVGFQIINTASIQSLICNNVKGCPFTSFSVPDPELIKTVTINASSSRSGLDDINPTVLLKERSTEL

[3] = biological target: T3, Prostaglandin G/H synthase 2 (Mus musculus, UniProt Q05769)
T3 sequence (Q05769 whole entry): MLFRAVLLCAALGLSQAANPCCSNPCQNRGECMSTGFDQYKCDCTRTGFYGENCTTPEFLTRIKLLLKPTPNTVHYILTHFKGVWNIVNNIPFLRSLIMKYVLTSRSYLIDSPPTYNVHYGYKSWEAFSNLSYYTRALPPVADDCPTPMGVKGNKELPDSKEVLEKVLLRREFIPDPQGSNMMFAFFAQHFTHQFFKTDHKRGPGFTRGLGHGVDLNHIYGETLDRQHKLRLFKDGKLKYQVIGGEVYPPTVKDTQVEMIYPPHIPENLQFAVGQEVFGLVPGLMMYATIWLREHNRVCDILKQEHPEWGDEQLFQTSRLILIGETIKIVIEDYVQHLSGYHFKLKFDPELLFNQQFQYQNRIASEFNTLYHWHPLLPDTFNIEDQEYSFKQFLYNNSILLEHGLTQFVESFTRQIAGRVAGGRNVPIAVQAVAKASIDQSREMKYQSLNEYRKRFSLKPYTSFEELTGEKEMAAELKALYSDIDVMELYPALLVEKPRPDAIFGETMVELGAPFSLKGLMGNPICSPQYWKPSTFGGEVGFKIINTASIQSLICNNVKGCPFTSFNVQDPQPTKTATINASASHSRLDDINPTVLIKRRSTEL
Description: IC50 value was determined against Prostaglandin G/H synthase 2 of J7744A.1 cell lines.

[4] = biological target: T4, Prostaglandin G/H synthase 1 (Ovis aries, UniProt P05979)
T4 sequence (P05979 whole entry): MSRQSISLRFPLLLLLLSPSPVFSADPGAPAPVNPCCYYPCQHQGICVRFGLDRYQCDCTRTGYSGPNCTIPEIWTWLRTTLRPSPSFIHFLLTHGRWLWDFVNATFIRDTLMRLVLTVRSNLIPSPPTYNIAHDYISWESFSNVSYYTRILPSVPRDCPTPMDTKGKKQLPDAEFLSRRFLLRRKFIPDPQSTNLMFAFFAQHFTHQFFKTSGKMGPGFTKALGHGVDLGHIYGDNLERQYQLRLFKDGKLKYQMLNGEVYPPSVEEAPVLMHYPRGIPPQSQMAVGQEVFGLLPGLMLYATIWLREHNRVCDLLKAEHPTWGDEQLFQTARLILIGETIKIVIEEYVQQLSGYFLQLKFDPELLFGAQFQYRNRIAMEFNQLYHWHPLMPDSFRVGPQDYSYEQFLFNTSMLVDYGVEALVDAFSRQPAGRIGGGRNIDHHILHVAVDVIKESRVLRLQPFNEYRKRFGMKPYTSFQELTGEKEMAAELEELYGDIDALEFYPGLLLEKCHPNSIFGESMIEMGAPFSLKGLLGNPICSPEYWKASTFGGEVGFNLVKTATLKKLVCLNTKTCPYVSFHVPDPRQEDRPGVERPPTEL
Description: IC50 against ovine Prostaglandin G/H synthase 1

[5] = species on record: Mus musculus; assay: ED50 measured by hyperalgesia assay; assay type: functional
[6] = species on record: Rattus norvegicus; assay: Lesion frequency measured in rats; assay type: functional
[7] = species on record: Rattus norvegicus; assay: Percentage inhibition of the prostaglandin synthesis was measured in rats.; assay type: functional
[8] = species on record: Rattus norvegicus; assay: ED50 measured by CFE assay; assay type: functional
[9] = species on record: Rattus norvegicus; assay: Percentage of gastric damage was measured in rats.; assay type: functional, Stomach
[10] = biological target: T1, Prostaglandin G/H synthase 1; assay: IC50 value was determined against Prostaglandin G/H synthase 1 of human platelet rich plasma; Not active
[11] = biological target: T5, Prostaglandin G/H synthase 1 (Ovis aries) (UniProt P05979); assay: IC50 value against ovine Prostaglandin G/H synthase 1; Not active; details: concentration not given here
T5 sequence (whole entry): T4 sequence (P05979 whole entry)

[12] = biological target: T1, Prostaglandin G/H synthase 1; assay: as §1; assay type: cell-free
[13] = biological target: T5, Prostaglandin G/H synthase 1 (Ovis aries); assay: IC50 value against oCOX-1 at 10 uM
[14] = biological target: T5, Prostaglandin G/H synthase 1 (Ovis aries); assay: IC50 value against ovine Prostaglandin G/H synthase 1 at 10 uM
[15] = biological target: T2, Prostaglandin G/H synthase 2; assay: IC50 value against recombinant human Prostaglandin G/H synthase 2; not active
[16] = biological target: T5, Prostaglandin G/H synthase 1 (Ovis aries); assay: IC50 value against oCOX-1 at 10 uM; Not active
[17] = biological target: T6, Prostaglandin G/H synthase 2 (Homo sapiens) (UniProt P35354); assay: IC50 value against recombinant human Prostaglandin G/H synthase 2 at 10 uM
T6 sequence (whole entry): T2 sequence (P35354 whole entry)

T1 sequence (P23219 whole entry): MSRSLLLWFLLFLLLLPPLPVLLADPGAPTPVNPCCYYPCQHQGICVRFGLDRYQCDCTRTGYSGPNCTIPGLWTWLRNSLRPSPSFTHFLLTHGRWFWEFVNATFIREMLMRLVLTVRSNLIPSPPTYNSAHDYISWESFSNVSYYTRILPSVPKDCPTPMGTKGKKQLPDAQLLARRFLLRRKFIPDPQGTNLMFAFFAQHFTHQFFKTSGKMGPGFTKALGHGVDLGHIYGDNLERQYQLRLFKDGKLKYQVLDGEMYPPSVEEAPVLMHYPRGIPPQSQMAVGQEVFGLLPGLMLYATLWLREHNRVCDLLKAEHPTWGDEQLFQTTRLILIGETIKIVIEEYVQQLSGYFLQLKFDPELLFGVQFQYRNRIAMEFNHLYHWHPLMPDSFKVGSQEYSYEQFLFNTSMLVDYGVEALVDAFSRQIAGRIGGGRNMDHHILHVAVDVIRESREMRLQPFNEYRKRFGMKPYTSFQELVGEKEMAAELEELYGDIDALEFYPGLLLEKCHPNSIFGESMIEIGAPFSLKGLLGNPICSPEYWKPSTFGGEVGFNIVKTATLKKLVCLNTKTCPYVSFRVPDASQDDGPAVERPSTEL

SMILES | IC50 [1] | IC50 [2] | IC50 [3] | IC50 [4] | IC50 [12] | also measured
CC(C)(C)c1cc(/C=C2\SC(N=C(N)N)=NC2=O)cc(C(C)(C)C)c1O | 250 nM | 21000 nM | 430 nM | 6.1 nM | – | –
CS(=O)(=O)Nc1ccc([N+](=O)[O-])cc1OC1CCCCC1 [NS-398] | – | – | – | – | – | ED40 [5]: 7.4 mg/kg; Lesion frequency [6]: 0%; Inhibition [7]: 30.7%; ED40 [8]: 0.61 mg/kg; Gastric damage [9]: 0%
CONC1=NC(=O)/C(=C/c2cc(C(C)(C)C)c(O)c(C(C)(C)C)c2)S1 [listing 1 of 2 here] | – | 1700 nM | 170 nM | – | – | IC50 [10]: > 20000 nM
CONC1=NC(=O)/C(=C/c2cc(C(C)C)c(O)c(C(C)C)c2)S1 | > 20000 nM | 570 nM | > 20000 nM | > 20000 nM | – | –
CCONC1=NC(=O)/C(=C/c2cc(C(C)(C)C)c(O)c(C(C)(C)C)c2)S1 | – | 3200 nM | 270 nM | – | – | IC50 [10]: > 20000 nM; inhibition [11]: < 20%
C=CCONC1=NC(=O)/C(=C/c2cc(C(C)(C)C)c(O)c(C(C)(C)C)c2)S1 | – | 2700 nM | 1600 nM | – | – | IC50 [10]: > 20000 nM; inhibition [11]: < 20%
CC(C)(C)c1cc(/C=C2\SC(NO)=NC2=O)cc(C(C)(C)C)c1O | 9200 nM | 1500 nM | 170 nM | 52000 nM | – | –
CCONC1=NC(=O)/C(=C/c2cc(C(C)(C)C)c(O)c(C(C)(C)C)c2)O1 | – | 79000 nM | 650 nM | 3500 nM | > 20000 nM | –
CC(C)(C)c1cc(/C=C2\SC(=O)NC2=O)cc(C(C)(C)C)c1O | – | 4700 nM | 60 nM | 42000 nM | 9300 nM | –
CON(C)C1=NC(=O)/C(=C/c2cc(C(C)(C)C)c(O)c(C(C)(C)C)c2)S1 | 5800 nM | 18000 nM | 1600 nM | 51000 nM | – | ED40 [5]: 0.06 mg/kg; Lesion frequency [6]: 25%; Inhibition [7]: 52.2%; ED40 [8]: 8.1 mg/kg; Damaged area [9]: 0.04%
CONC1=NC(=O)/C(=C/c2cc(C(C)(C)C)c(O)c(C(C)(C)C)c2)O1 | – | – | 790 nM | 7300 nM | > 20000 nM | –
CC(C)(C)c1cc(/C=C2\SC(NC#N)=NC2=O)cc(C(C)(C)C)c1O | > 20000 nM | 55000 nM | 230 nM | – | – | inhibition [13]: < 20%
C/C(=C1/SC(N=C(N)N)=NC1=O)c1cc(C(C)(C)C)c(O)c(C(C)(C)C)c1 | – | 12000 nM | 180 nM | 460 nM | 590 nM | –
C=CCONC1=NC(=O)/C(=C/c2cc(C(C)(C)C)c(O)c(C(C)(C)C)c2)O1 | – | 26000 nM | 1900 nM | 4000 nM | > 20000 nM | –
CC(C)(C)c1cc(/C=C2\NC(=S)NC2=O)cc(C(C)(C)C)c1O | – | 260 nM | 83 nM | 1300 nM | 990 nM | –
CN1C(NC(=N)N)=NC(=O)/C1=C/c1cc(C(C)(C)C)c(O)c(C(C)(C)C)c1 | – | 81000 nM | 750 nM | 27 nM | 1500 nM | –
CC(C)c1cc(/C=C2\SC(N=C(N)N)=NC2=O)cc(C(C)C)c1O | 2700 nM | 1800 nM | 190 nM | 220 nM | – | –
CS(=O)(=O)c1ccc(-n2nc(C(F)(F)F)cc2-c2ccc(F)cc2)cc1 [SC-58125] | – | – | – | – | – | ED40 [5]: 0.3 mg/kg; Lesion frequency [6]: 0%; Inhibition [7]: -1.58%; ED40 [8]: > 30 mg/kg; inhibition [14]: < 20%; Gastric damage [9]: 0%
COc1ccc2c(c1)c(CC(=O)O)c(C)n2C(=O)c1ccc(Cl)cc1 [INDOMETHACIN] | – | – | – | – | – | ED40 [5]: 0.6 mg/kg; Lesion frequency [6]: 75%; Inhibition [7]: 96.5%; ED40 [8]: 1.6 mg/kg; Gastric damage [9]: 0.18%
CSC1=NC(=O)/C(=C/c2cc(C(C)(C)C)c(O)c(C(C)(C)C)c2)S1 | 14400 nM | 1800 nM | 1600 nM | 63000 nM | – | –
CONC1=NC(=O)/C(=C/c2cc(C(C)(C)C)c(O)c(C(C)(C)C)c2)S1 [listing 2 of 2 here] | – | – | – | – | – | inhibition [11]: < 20%
CC(C)(C)c1cc(/C=C2\SC(=S)NC2=O)cc(C(C)(C)C)c1O | – | 1500 nM | 390 nM | 24000 nM | > 20000 nM | –
CSC1=NC(=O)/C(=C/c2cc(C(C)(C)C)c(O)c(C(C)(C)C)c2)O1 | 6400 nM | – | 540 nM | 1600 nM | – | IC50 [15]: Not Active
CONC1=NC(=O)/C(=C/c2cc(C(C)(C)C)c(O)c(C(C)(C)C)c2)S1.C[N+](C)(C)CC[O-] | – | – | – | – | – | ED40 [5]: 0.1 mg/kg; Lesion frequency [6]: 0%; Inhibition [7]: 32.8%; ED40 [8]: 15.7 mg/kg; Gastric damage [9]: 0%
CC(C)(C)c1cc(/C=C2\OC(N=C(N)N)=NC2=O)cc(C(C)(C)C)c1O | – | 5100 nM | 440 nM | 1200 nM | 4400 nM | –
CC(C)(C)c1cc(C=C2SC(=N)NC2=O)cc(C(C)(C)C)c1O [DARBUFELONE] | 600 nM | – | 69 nM | – | – | inhibition [16]: < 20%; inhibition [17]: 41%
CC(C)(C)c1cc(/C=C2\OC(=O)NC2=O)cc(C(C)(C)C)c1O | – | 34000 nM | 71 nM | 95 nM | 1200 nM | –
